# Measured values as given in publication PMC7180617, “Biological Evaluation of 3-Benzylidenechromanones and Their Spiropyrazolines-Based Analogues” (Molecules, 2020).
# Several values for one entry are separate records, joined by “and”; a condition that tells them apart may be missing. Equal values may be shown once. Read-outs that look alike come from different tables or passages of the source.
# Key:
# NALM-6 cells [1] = assay: MTT cytotoxicity assay, NALM-6; type: cell-based, human; conditions: Homo sapiens, NALM-6, 48 h, MTT, 46 h + 2 h incubation
# Experimental: (§1) The first stage of the study used the MTT viability test to determine the cytotoxicity of ten compounds, i.e., 3-arylidenechromanone, 3-arylideneflavanone, spirochromanone and spiro- flavanone analogues, against four human cancer cell lines: HL-60, NALM-6, WM-115 and COLO-205.
# (§2) Cytotoxicity was tested against human skin melanoma cells (WM-115, ECACC, Salisbury, UK), two human leukemia cell lines, viz. promyelocytic leukemia (HL-60) and lymphoblastic leukemia (NALM-6), and human colon adenocarcinoma cells (COLO-205). The cell lines COLO-205, WM-115 and HL-60 used in this work came from the ATCC American Type Culture Collection (Manassas, VA, USA), whereas the NALM-6 cell line was purchased from the German Collection of Microorganisms and Cell Cultures (Braunschweig, Germany). The leukaemia cells and colon adenocarcinoma were cultured in RPMI 1640 medium (Invitrogen, Grand Island, NY, USA) supplemented with 10% fetal bovine serum (FBS; Invitrogen) and gentamicin (25 µg/mL; KRKA, Novo Mesto, Slovenia). For melanoma WM-115 cells, Dulbecco’s minimal essential medium (DMEM; Invitrogen) was used. All cell lines were cultured at 37 °C in a humidified atmosphere of 5% CO2 in air.
# (§3) For all experiments, the studied compounds were dissolved in DMSO (Sigma-Aldrich) and were further diluted in culture medium to obtain <0.1% DMSO concentration. In each experiment, controls with and without 0.1% DMSO were performed. The cytotoxicity of all compounds and of the reference compounds 4-chromanone and 3-benzylideneflavanone was determined by the MTT assay, i.e., 3-(4,5-dimethylthiazol-2-yl)-2,5-diphenyltetrazolium bromide (Sigma, St. Louis, MO, USA), which measures cellular dehydrogenase activity. Exponentially growing cells were seeded a day before the experiment onto a 96-well microplates (Nunc, Roskilde, Denmark) at a density up to 6–8 × 10^3 cells/well (depending on the cell line). Subsequently, various concentrations of the studied compounds freshly prepared in DMSO and diluted with complete culture medium were added. All compounds were tested for their cytotoxicity at a final concentration of 10^−7–10^−3 M. After 46 h of incubation with the studied compounds, the cells were treated with the MTT reagent and incubation was continued for another two hours. MTT – formazan crystals were dissolved in 20% sodium dodecyl sulphate (SDS, Sigma-Aldrich) and 50% DMF (Sigma-Aldrich) at pH 4.7; following this, absorbance was read at 570 nm on a multifunctional Victor ELISA-plate reader (Perkin Elmer, Turku, Finland). The IC50 values, i.e., the concentration of the test compound required to reduce the cell survival fraction to 50% of controls, were calculated from concentration-response curves and used as a measure of the sensitivity of the cells to a given treatment. As a control, cultured cells were grown in the absence of drugs. The data points represent the means of at least five to ten repeats ± standard deviation (S.D.).
# [2] = system: red blood cells (RBC membrane integrity); assay: Red blood cell lysis assay; type: cell-based; conditions: 2% RBC suspension, 37 °C, 1 h
# From the text: (§4) All synthesized compounds with potential biological activity have to be tested for blood compatibility since xenobiotics will react with blood cells upon administration. In this case, biocompatibility refers to the quantification of cellular and plasma components of the blood. The measurement of the integrity of RBC membrane is considered a simple and reliable method for estimating hemocompatibility.
# (§5) The studies on biological material were approved by the Bioethics Committee of the Medical University of Lodz, Poland (RNN/109/16/KE). The blood samples were obtained from healthy donors at the Blood Donation Centre in Lodz. The procedure for plasma preparation for erythrotoxicity studies was described previously. The influence of synthesized compounds as well as two reference compounds flavanone and chromanone on RBC membrane integrity was performed by lysis assay which was conducted according to our previous protocol. Briefly, 2% RBC suspension in 0.9% NaCl was incubated at 37 °C for one hour with the tested compounds at various concentrations corresponding to their activity towards cancer cell lines or 0.9% NaCl (control). The samples were centrifuged at 3000 rpm for 10 min and the absorbance of the supernatant was measured at 550 nm. The results are presented as percentage of haemolysis where a sample containing 10 μL of 2.0% v/v Triton X-100 was regarded as a positive control contributing to 100% of haemolysis. A sample containing saline solution represented spontaneous haemolysis of RBCs (control). The studies were performed on four biological samples obtained from different blood donors (n = 4). The results are presented as mean ± standard deviation (SD). The coefficient of variability for the method was counted: W = 9.51%, n = 5.
# [3] = Red blood cell lysis assay; type: cell-based; conditions: human, 2% red blood cell suspension, 2% RBC suspension, 37 °C, Triton X-100 = 100%, read-out: percentage of hemolysis
# From the text: as §4, §5
# [4] = Lipophilicity (logP) by RP-TLC; conditions: RP-18 F254S TLC plates
# From the text: Lipophilicity is one of the most important physicochemical properties in pharmaceutical research. It can be considered a key determinant of the pharmacokinetic properties of a drug. It is commonly measured by the partition coefficient between water and n-octanol, being expressed as logP [14]. […] Knowledge of the partition coefficient is valuable: it is frequently used in structure–activity relationship (SAR) and quantitative structure–activity relationship (QSAR) studies. The experimental lipophilicity of the synthesized compounds, viz. benzylideneflavanones, benzylidenechromanones and spiropyrazolines, was determined using RP-TLC. […] It is important to examine the relationship between structure of the compound and its lipophilicity and cytotoxicity.
# The RP-TLC experiments were performed on TLC plates (5 × 10 cm) RP-18 F254S (Merck, Darmstadt, Germany). The synthesized compounds were dissolved in N,N-dimethylformamide DMF (2 mg/mL). […] A DMF-water solvent system was used as mobile phase. […] All experiments were performed at room temperature. The logP parameter was calculated using the equation from the calibration curve.
# COLO-205 cells = assay: MTT cytotoxicity assay, COLO-205; type: cell-based, human; conditions: Homo sapiens, COLO 205, 48 h, 46 h + 2 h incubation
# Experimental: as §1, §2, §3
# erythrocytes = assay: Red blood cell morphology (phase-contrast microscopy); type: cell-based; conditions: 2% erythrocyte suspension, 37 °C, 1 h, phase contrast 400×
# Experimental: Studies on erythrocyte morphology complement the erythrotoxicity studies because they provide information on potential immediate interactions of the tested compounds with the erythrocyte lipid bilayer, and the possibility of creating pathological forms of erythrocytes, which are not able to carry oxygen. The effects of the synthesized compounds, and the two reference compounds chromanone and flavanone, on the morphology of erythrocytes is shown in Figure 6. Briefly, 2% RBC suspension was incubated with 0.9% NaCl (control samples) or tested compounds at various concentrations corresponding to their activity towards cancer cell lines.
# A 2% erythrocyte suspension was incubated at 37 °C for one hour with various concentrations of synthesized compounds. The morphology of the RBCs was examined by means of a phase contrast Opta-Tech inverted microscope, at 400× magnification, equipped with software (OptaView 7) for image analysis.
# WM-115 cells [5] = assay: MTT cytotoxicity assay, WM-115; type: cell-based, human; conditions: Homo sapiens, WM-115, 48 h, MTT, 46 h + 2 h incubation
# Experimental: as §1, §2, §3
# HL-60 cells [6] = assay: MTT cytotoxicity assay, HL-60; type: cell-based, human; conditions: for IC50: Homo sapiens, HL-60, 48 h, MTT, 46 h + 2 h incubation
# Experimental: as §1, §2, §3
# WM-115 cells [7] = system: WM-115 cells; design: method as in PMID 30513785; conditions: MTT; cited from earlier work
# HL-60 cells [8] = assay: Cell cycle analysis by flow cytometry (propidium iodide); type: cell-based, human; conditions: for cell cycle, G1, mean / cell cycle, G2/M, mean / cell cycle, S, mean: mean of n=2; for cell cycle distribution, G1 / cell cycle distribution, G2 / cell cycle distribution, G2/M: HL-60, 20 h, mean ± SD, n = 2
# Experimental: The next stage examined the effects of the selected compounds on cell cycle progression in HL-60 leukemia cells. […] One million HL-60 (subline CCL 240; cell type: promyeloblast) cells in 3 mL of RPMI 1640 supplemented with 20% FBS were seeded on 6-well plate. […] Fixed cells were stored in −20 °C for 2–3 days. Before analysis, cells were centrifuged (10 min, 1500 rpm, 4 °C) and washed twice with cold PBS. After the second wash, the cells were suspended in 1mL of PBS containing 100 μg of RNase A and incubated in 37 °C for 10 min. Next, 5 μL of solution of propidium iodide (1 mg/mL) was added to each sample and incubated in dark for 30 min at RT. Stained cells were analyzed by flow cytometry (FACS Calibur, BD Biosciences, San Jose, CA, USA). Data from 10,000 gated cells were collected using CellQuestPro software (Ver 6.0, Becton Dickinson) and cell cycle analysis was performed with ModFit LT software (Ver 3.2, Verity Software House, Topsham, ME, USA).
# HL-60 cells [9] = system: HL-60 cells; design: method as in PMID 30513785; conditions: MTT; cited from earlier work
# NALM-6 cells [10] = system: NALM-6 cells; design: method as in PMID 30513785; conditions: MTT; cited from earlier work
# [11] = Figure S3, HL-60, 0.5 × IC50 (µM: quercetin 29, 1 1.5, 7 18, 10 4.7, 11 4.5, 12 6)
# [12] = Figure S3, HL-60, 0.5 × IC50, each of two repetitions
# [13] = Figure S3, HL-60, 1 × IC50 (µM: quercetin 58, 1 3, 7 35, 10 9.4, 11 9, 12 12)
# [14] = Figure S3, HL-60, 1 × IC50, each of two repetitions
# [15] = 0.5 × IC50 (µM: quercetin 29, 2 1.5, 7 18, 12 6, 11 4.5, 10 4.7)
# [16] = 1 × IC50 (µM: quercetin 58, 2 3, 7 35, 12 12, 11 9, 10 9.4)
structure (smiles),measurement,setting,value
"COc1ccc(/C=C2\COc3ccccc3C2=O)cc1 [Compound 3, (E)-3-(4-methoxybenzylidene)chroman-4-one]",IC50,NALM-6 cells [1],30.1 ± 3.15 µM
same,effect on RBC hemolysis / erythrocyte membrane integrity (in words),[2],significant disintegration of the erythrocyte membrane at concentrations above 25 µM
same,hemolysis at 1 h,[3],≤ 5%
same,chromatographic logP,[4],4.08
same,IC50,COLO-205 cells,193 ± 2.9 µM
same,erythrocyte morphology (in words),erythrocytes,echinocytes accounted for the major part of erythrocytes
same,IC50,WM-115 cells [5],23.5 ± 1.71 µM
same,IC50,HL-60 cells [6],45.4 ± 4.77 µM
"COc1ccc(C2CN=NC23COc2ccccc2C3=O)cc1 (stereo not shown) [Compound 4, 4′-[(4-methoxy)phenyl]-4′,5′-dihydro-4H-spiro[chroman-3,3′-pirazol]-4-one]",IC50,NALM-6 cells [1],72.6 ± 4.56 µM
same,effect on RBC hemolysis / erythrocyte membrane integrity (in words),[2],significant disintegration of the erythrocyte membrane at concentrations above 25 µM
same,hemolysis at 1 h,[3],≤ 5%
same,chromatographic logP,[4],4.68
same,IC50,COLO-205 cells,26.5 ± 1.8 µM
same,erythrocyte morphology (in words),erythrocytes,echinocytes accounted for the major part of erythrocytes
same,IC50,WM-115 cells [5],75.3 ± 4.89 µM
same,IC50,HL-60 cells [6],74 ± 1.85 µM
same,melting point,,109 to 111.3 °C
"O=C1c2ccccc2OC(c2ccccc2)C12N=NCC2c1ccccc1 (stereo not shown) [Compound 6, 2′-phenylchromanone-3′-spiro-3,4-phenyl-1-pyrazoline]",IC50,NALM-6 cells [1],44.4 ± 6.3 µM
same,chromatographic logP,[4],5.88
same,IC50,COLO-205 cells,53.6 ± 1.6 µM
same,erythrocyte morphology (in words),erythrocytes,echinocytes accounted for the major part of erythrocytes
same,IC50,WM-115 cells [5],57.4 ± 5.8 µM
same,fold lower cytotoxicity against HL-60 than compound 2,"HL-60 cells [6]; HL-60, compared with compound 2",more than 330 fold
same,IC50,HL-60 cells [6],> 1000 µM
same,melting point,,126.5 to 127 °C
"O=C1c2ccccc2OCC12N=NCC2c1ccccc1 (stereo not shown) [Compound 8, 4′-phenyl-4′,5′-dihydro-4H-spiro[chromano-3,3′-pirazol]-4-one]",IC50,NALM-6 cells [1],282 ± 49.4 µM
same,effect on RBC hemolysis / erythrocyte membrane integrity (in words),[2],significantly greater disintegration of RBC membrane was reported at concentrations of 250 µM and 500 µM
same,chromatographic logP,[4],2.35
same,IC50,COLO-205 cells,> 1000 µM
same,IC50,WM-115 cells [5],415 ± 75.4 µM
same,IC50,HL-60 cells [6],474 ± 29 µM
same,melting point,,141 to 142 °C
"CCN(CC)c1ccc(C=C2C(=O)c3ccccc3OC2c2ccccc2)cc1 (stereo not shown) [Compound 11, (E)-3-(4-N,N-diethylaminobenzylidene)-2-phenylchroman-4-one]",IC50,WM-115 cells [7],6.45 ± 0.69 µM
same,"cell cycle, G1, mean",HL-60 cells [8]; [11],"5,95%"
same,"cell cycle, G2/M, mean",HL-60 cells [8]; [11],"59,23%"
same,"cell cycle, S, mean",HL-60 cells [8]; [11],"34,83%"
same,"cell cycle, G1, single repetitions",HL-60 cells [8]; [12],"3,45% and 8,45%"
same,"cell cycle, G2/M, single repetitions",HL-60 cells [8]; [12],"64,13% and 54,32%"
same,"cell cycle, S, single repetitions",HL-60 cells [8]; [12],"27,42% and 42,23%"
same,"cell cycle, G1, mean","HL-60 cells [8]; Figure S3, HL-60, 1 × IC50 (µM in parenthesis: quercetin 58, 1 3, 7 35, 10 9.4, 11 9, 12 12)","3,17%"
same,"cell cycle, G2/M, mean",HL-60 cells [8]; [13],"67,76%"
same,"cell cycle, S, mean",HL-60 cells [8]; [13],"29,08%"
same,"cell cycle, G1, single repetitions",HL-60 cells [8]; [14],"5,16% and 1,17%"
same,"cell cycle, G2/M, single repetitions",HL-60 cells [8]; [14],"67,98% and 67,53%"
same,"cell cycle, S, single repetitions",HL-60 cells [8]; [14],"26,86% and 31,30%"
same,"cell cycle distribution, G1",HL-60 cells [8]; [15],3.2 ± 2.8%
same,"cell cycle distribution, G2",HL-60 cells [8]; [15],29.1 ± 3.1%
same,"cell cycle distribution, G2/M",HL-60 cells [8]; [15],67.8 ± 0.3%
same,"cell cycle distribution, G1",HL-60 cells [8]; [16],6 ± 3.5%
same,"cell cycle distribution, G2",HL-60 cells [8]; [16],34.8 ± 10.5%
same,"cell cycle distribution, G2/M",HL-60 cells [8]; [16],59.2 ± 6.9%
same,cells arrested in G2/M phase,"HL-60 cells [8]; HL-60, concentrations of IC50 and 0.5 × IC50",50–60%
same,chromatographic logP,[4],5.69
same,IC50,HL-60 cells [9],8.36 ± 0.63 µM
same,IC50,NALM-6 cells [10],9.08 ± 0.3 µM
